The Ki is a dissociation constant, usually derived from enzyme kinetics or from competition with a known ligand. Usually EC50 stands for the concentration needed to bring the measured effect to its halfway point. For orientation: IC50 means the concentration that gives 50% inhibition.

Here are results for 30 molecules from publication PMC3602246 (BMC Pharmacology & Toxicology, 2013).

One assay concerns the target MOR. As to conditions: cited from earlier work; for Ki: read-out: Ki, affinity binding to the MOR.
For another assay, the target named is DOR. As to conditions: cited from earlier work; for Ki: read-out: Ki, affinity binding to the DOR.
The target in assay [1] is T1, human kappa opioid receptor (Homo sapiens, UniProt P41145).
T1 construct: FLAG; expressed in transfected cells
T1 sequence (P41145 whole entry): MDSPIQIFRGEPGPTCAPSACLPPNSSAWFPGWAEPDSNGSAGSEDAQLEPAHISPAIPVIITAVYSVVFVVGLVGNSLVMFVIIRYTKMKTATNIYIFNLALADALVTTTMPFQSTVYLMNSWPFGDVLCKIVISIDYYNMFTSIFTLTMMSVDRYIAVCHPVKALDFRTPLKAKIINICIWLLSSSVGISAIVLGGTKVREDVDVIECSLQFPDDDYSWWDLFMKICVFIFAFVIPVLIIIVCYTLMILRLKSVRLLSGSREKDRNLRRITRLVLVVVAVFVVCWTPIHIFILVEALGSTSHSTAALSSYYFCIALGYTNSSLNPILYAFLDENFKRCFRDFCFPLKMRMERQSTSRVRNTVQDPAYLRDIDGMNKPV
The format is cell-based.

Another assay has as its target KOR. As to conditions: cited from earlier work; for Ki: read-out: Ki, affinity binding to the KOR.
Assay [2] has as its target T2, human mu opioid receptor (MOR1) (Homo sapiens, UniProt P35372).
T2 construct: FLAG; expressed in transfected cells
Type of assay: cell-based.

The target of assay [3] is T1, human kappa opioid receptor. Type of assay: cell-based. As to conditions: read-out: IC50, single phase inhibition of BRL-52537 DMR.
Assay [4] shares this target. The format is cell-based. This is another data set of the same source.
Assay [5] has as its target T2, human mu opioid receptor (MOR1). Type of assay: cell-based. The following applies: HEK-MOR; ligand 10 μM, 1 hr; DAMGO 10 μM.
The mark [6] stands for this setting: read-out: EC50, first phase of biphasic DMR dose response.
[7] abbreviates: read-out: EC50, second phase of biphasic DMR dose response.

“Also recorded” adds a separate entry of the source. Read-outs that look alike come from different tables or passages of the source.

T2 sequence (P35372 whole entry): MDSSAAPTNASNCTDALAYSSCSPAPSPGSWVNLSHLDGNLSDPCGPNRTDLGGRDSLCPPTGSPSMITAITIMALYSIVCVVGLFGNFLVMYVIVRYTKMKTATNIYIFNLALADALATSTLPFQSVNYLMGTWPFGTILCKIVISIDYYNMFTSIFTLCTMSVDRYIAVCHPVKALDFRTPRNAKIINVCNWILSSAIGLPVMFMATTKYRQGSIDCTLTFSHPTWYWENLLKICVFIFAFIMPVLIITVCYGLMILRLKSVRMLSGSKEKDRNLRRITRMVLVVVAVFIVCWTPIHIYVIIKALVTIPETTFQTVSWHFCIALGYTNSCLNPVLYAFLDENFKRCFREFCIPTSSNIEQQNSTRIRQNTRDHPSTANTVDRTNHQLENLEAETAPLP

Consider `COc1ccc2c3c1O[C@H]1[C@@H](O)C=C[C@H]4[C@@H](C2)NCC[C@@]341` [(−)-Norcodeine], for which the Ki at MOR is 267 nM.

As to `O=C1/C(=C/c2ccccc2)C[C@@]2(O)[C@H]3Cc4ccc(O)c5c4[C@@]2(CCN3CC2CC2)[C@H]1O5` [BNTX], the Ki on DOR was 0.66 nM; at KOR, 55 nM; on MOR, 18 nM. Moreover, the “DMR agonist activity classification, KOR” value in assay [1] is “off-target”. Besides, in assay [2], the “DMR agonist activity classification, MOR” value is “off-target”.

With `O=C(Cc1ccc(Cl)c(Cl)c1)N1CCCCC1CN1CCCC1` (stereo not drawn) [BRL-52537], in assay [1], the “DMR agonist activity classification, KOR” value was “Full agonist”; the “DMR response at 9 min poststimulation” value is given as 213±21 pm; the “saturable DMR amplitude, first phase of biphasic dose response” value (“saturable DMR amplitude, first phase” for short) is given as 120±6 pm; the “saturable DMR amplitude, second phase of biphasic dose response” value (“saturable DMR amplitude, second phase” for short) was found to be 207±13 pm. Moreover, the 50% effective concentration (EC50) in assay [1] (setting [6]) was 0.0356 ± 0.0031 nM. In addition, the EC50 in assay [1] (setting [7]) was determined as 26 ± 1.9 nM. In addition, at KOR, the inhibitory constant (Ki) was 0.24 nM. Besides, the IC50 in assay [3] came to 4.1 ± 0.23 nM. Moreover, the Ki on MOR was 1560 nM. Besides, the “ligand DMR in PTX-pretreated cells” value in assay [4] is recorded as “detectable P-DMR”.

With `C[C@@H](NC(=O)[C@@H](N)Cc1ccc(O)cc1)C(=O)NCC(=O)N(C)[C@@H](Cc1ccccc1)C(=O)NCCO` [DAMGO], in assay [1], the “saturable DMR amplitude, first phase” value was 139±6 pm and the “saturable DMR amplitude, second phase” value stood at 200±8 pm. Also, at KOR, the Ki was > 20000 nM. Besides, in assay [2], the “DMR agonist activity classification, MOR” value is “Full agonist” and the “DMR response at 9 min poststimulation” value is on record as 240±17 pm.

In the case of `CN(C(=O)Cc1ccc(Cl)c(Cl)c1)[C@H](CN1CCCC1)c1cccc(N=C=S)c1` [DIPPA], the half-maximal inhibitory concentration (IC50) in the assay on DOR (read-out: IC50, affinity binding to the DOR) was > 1000 nM; in the assay with KOR (read-out: IC50, affinity binding to the KOR), 2.21 nM; in assay [3], 455 ± 32.3 nM; in the assay with MOR (read-out: IC50, affinity binding to the MOR), 1800 nM. The “DMR agonist activity classification, KOR” value in assay [1] is reported as “Full agonist”. The “saturable DMR amplitude, first phase” value in assay [1] is listed as 138±8 pm. For the same molecule, the “saturable DMR amplitude, second phase” value in assay [1] is listed as 205±9 pm. The half-maximal effective concentration (EC50) is 13.4 ± 1.5 nM in assay [1] (setting [6]) and 240 ± 11.2 nM in assay [1] (setting [7]). Moreover, in assay [4], the “ligand DMR in PTX-pretreated cells” value is given as “detectable P-DMR”.

As to `CC1(C)SSC(C)(C)[C@@H](NC(=O)[C@@H](N)Cc2ccc(O)cc2)C(=O)NCC(=O)N[C@@H](Cc2ccccc2)C(=O)N[C@H]1C(=O)O` [DPDPE], the Ki on KOR is 12000 nM; on MOR, 600 nM.

In the case of `NC(=O)[C@H](Cc1ccccc1)NC(=O)[C@H](Cc1c[nH]c2ccccc12)NC(=O)[C@@H]1CCCN1C(=O)[C@@H](N)Cc1ccc(O)cc1` [Endomorphin-1], the inhibition constant (Ki) on DOR is > 500 nM.

`NC(=O)[C@H](Cc1ccccc1)NC(=O)[C@H](Cc1ccccc1)NC(=O)[C@@H]1CCCN1C(=O)[C@@H](N)Cc1ccc(O)cc1` [Endomorphin-2]: the values for the Ki on DOR and on MOR were > 500 nM and 0.43 nM, respectively.

Turning to `COC(=O)N1CCN(C(=O)Cc2ccc(Cl)c(Cl)c2)C(CN2CCCC2)C1` (stereo not drawn) [GR 89696], in assay [1], the “DMR agonist activity classification, KOR” value is on record as “Full agonist”. The inhibition constant (Ki) at KOR is 41.7 nM. Further, the “ligand DMR in PTX-pretreated cells” value in assay [4] was “detectable P-DMR”.

For the molecule `CN(C(=O)Cc1ccc(Cl)c(Cl)c1)C(CN1CCCC1)c1cccc(OCC(=O)O)c1` (stereo not drawn) [ICI 204,448], the Ki was > 1000 nM at DOR, 2.69 nM on KOR and > 1000 nM at MOR.

`C=CCN1CC[C@]23CCCC[C@H]2[C@H]1Cc1ccc(O)cc13` [Levallorphan]: the Ki on DOR is 1 nM; on KOR, 0.3 nM; at MOR, 1.7 nM.

Take `Oc1ccc2c3c1O[C@H]1c4c(c5ccccc5n4Cc4ccccc4)C[C@@]4(O)[C@@H](C2)N(CC2CC2)CC[C@]314` [N-Benzylnaltrindole]: in the assay on DOR, the “IC50 ratio at the DOR” value is given as 459. In addition, the “IC50 ratio at the KOR” value in the assay with KOR was 1.3. Further, the “blockage of the DAMGO response” value in assay [5] is “partial blockage”. The “IC50 ratio at the MOR” value in the assay with MOR is on record as 11.2.

On to `C=CC[N+]1(C)CC[C@]23c4c5ccc(O)c4O[C@H]2C(=O)CC[C@@]3(O)[C@H]1C5` (stereo partly drawn) [Naloxone methiodide], for which the Ki at DOR was 204 nM; on KOR it was 1010 nM; on MOR, 28.9 nM. Also, the “blockage of the DAMGO response” value in assay [5] is “partial blockage”.

As to `Oc1ccc2c3c1O[C@H]1c4oc5ccccc5c4C[C@@]4(O)[C@@H](C2)N(CC2CC2)CC[C@]314` [Naltriben], the inhibition constant Ki is 0.4 nM on DOR, > 10000 nM on KOR and 80.8 nM on MOR. Also, in assay [5], the “blockage of the DAMGO response” value is listed as “partial blockage”.

As to `Oc1ccc2c3c1O[C@H]1c4[nH]c5ccccc5c4C[C@@]4(O)[C@@H](C2)N(CC2CC2)CC[C@]314` [Naltrindole], the “blockage of the DAMGO response” value in assay [5] is “partial blockage”.

For the molecule `Oc1ccc2c3c1O[C@H]1c4[nH]c5c(c4C[C@@]4(O)[C@@H](C2)N(CC2CC2)CC[C@]314)C[C@@]1(O)[C@H]2Cc3ccc(O)c4c3[C@@]1(CCN2CC1CC1)[C@H]5O4` [Nor-Binaltorphimine], in assay [5], the “blockage of the DAMGO response” value is on record as “partial blockage”. Also, the “DMR under all eight assay conditions” value in assay [4] is given as “absence of any DMR; also recorded: did not trigger any DMR response under any conditions”.

`C=CCN1CCC2(C)c3cc(O)ccc3CC1C2C` (stereo not drawn) [SKF10047]: the values for the inhibition constant Ki at DOR, at KOR and at MOR were 19000 nM, 1600 nM and 1900 nM, respectively.

Consider `COC(=O)[C@@H]1C[C@H](OC(C)=O)C(=O)[C@H]2[C@@]1(C)CC[C@H]1C(=O)O[C@H](c3ccoc3)C[C@]21C` [Salvinorin A], for which, in assay [1], the “DMR agonist activity classification, KOR” value was “Full agonist”. Besides, the EC50 with KOR (read-out: EC50 at the KOR) was […]; in the assay with MOR (read-out: EC50 at the MOR), […]. The “ligand DMR in PTX-pretreated cells” value in assay [4] is on record as “detectable P-DMR”.

In the case of `COC(=O)/C=C/C(=O)N[C@@H]1CC[C@@]2(O)[C@H]3Cc4ccc(O)c5c4[C@@]2(CCN3CC2CC2)[C@H]1O5` [β-Funaltrexamine], the inhibitory constant (Ki) is 48 nM on DOR, 2.8 nM on KOR and 0.33 nM at MOR.

In the case of (Met5)-Enkephalin, the inhibitory constant (Ki) on DOR was 2 nM; on KOR, 2.9 nM; on MOR, 3 nM.

As to DADLE, the inhibitory constant (Ki) is 0.63 nM on DOR, 1900 nM on KOR and 150 nM on MOR.

With DSLET, in assay [2], the “DMR agonist activity classification, MOR” value is “Full agonist”. On MOR, the inhibitory constant (Ki) is 120 nM.

On to DTLET, for which the Ki on DOR was 22 nM; on KOR it was > 10000 nM. Further, in assay [2], the “DMR agonist activity classification, MOR” value is given as “Full agonist”.

On to Deltorphin II, for which the values for the Ki on DOR, on KOR and on MOR were 3.3 nM, > 1000 nM and > 1000 nM, respectively.

In the case of “Dynorphin A (1–8) (YGGFLRRI; Dynorphin A(1-8); UniProt P01213 207-214, looked up, fragment)”, the Ki is 32.6 nM on DOR and 22.3 nM at MOR. Besides, in assay [2], the “DMR agonist activity classification, MOR” value is listed as “Full agonist”.

As to Dynorphin A (1–13), the Ki on DOR is > 1000 nM; on KOR, 0.98 nM; at MOR it was 31 nM.

As for Dynorphin A (2–13), the Ki on KOR is 680 nM.

As for Dynorphin B, at DOR, the Ki was 12.8 nM.

Regarding Nociceptin, the inhibitory constant (Ki) is > 1000 nM on DOR, > 1000 nM on KOR and 270 nM on MOR.

For “α-Neoendorphin (YGGFLRKYPK; Alpha-neoendorphin; UniProt P01213 175-184, looked up) [Kappa agonist]”, the inhibition constant Ki on DOR was 1.17 nM; at KOR, 1.4 nM. The “DMR agonist activity classification, KOR” value in assay [1] is “Full agonist”. For the same molecule, the “ligand DMR in PTX-pretreated cells” value in assay [4] is listed as “detectable P-DMR”.
